For this experiment, the target named is T1, GK (glucokinase, residues 12-465) (Homo sapiens, UniProt P35557).
T1 construct: I.D. No. 1 corresponds to residues 12-465 of glucokinase; made in house; host or cells: DH10b-T1r E. coli
T1 sequence (P35557 with tags, fused parts or gaps isoform P35557-2): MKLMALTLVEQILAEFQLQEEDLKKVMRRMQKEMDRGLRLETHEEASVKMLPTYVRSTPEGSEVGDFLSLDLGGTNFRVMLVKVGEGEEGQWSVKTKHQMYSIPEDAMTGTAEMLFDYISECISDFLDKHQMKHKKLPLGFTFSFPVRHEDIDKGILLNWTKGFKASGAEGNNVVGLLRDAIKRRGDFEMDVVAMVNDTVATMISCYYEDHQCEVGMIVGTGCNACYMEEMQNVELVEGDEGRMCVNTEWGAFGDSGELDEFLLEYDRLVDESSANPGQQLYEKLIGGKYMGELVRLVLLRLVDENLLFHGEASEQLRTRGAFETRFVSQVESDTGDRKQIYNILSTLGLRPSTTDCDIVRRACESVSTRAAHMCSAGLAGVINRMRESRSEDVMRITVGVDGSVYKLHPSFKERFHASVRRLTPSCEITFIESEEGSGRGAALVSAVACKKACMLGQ
Description: enzymatic glucokinase activity assay (ATP consumption, KinaseGlo luminescence). It counts as biochemical. The settings on record: 5 μM ATP, 5 mM Glucose, reported as bins; for EC50: read-out: pKact. In short, it runs like this: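 E. coli-expressed recombinant GK purified by two anion-exchange steps. Reaction in 25 mM Hepes pH 7.2, 10 mM MgCl2, 1 mM DTT, 5 μM ATP, 5 mM glucose, 2% DMSO, 60 min at room temperature. ATP consumption quantified by KinaseGlo luminescence; pKact and % ACTmax derived by non-linear curve fitting.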
(Kinase-Glo measures the ATP left after a reaction by luminescence.)

Setting [1] is: Kact = concentration that displays 50% of the maximal increase in GK activity, 60 min, room temperature.
[2] abbreviates: calculated maximal gain in GK enzyme activity at a saturating concentration of the compound, read-out: % ACTmax.
[3] abbreviates: read-out: % ACTmax, calculated maximal gain in GK enzyme activity at a saturating concentration of the compound.

This is an account of results in patent US8563730B2, “Pyrazole and fused pyrazole glucokinase activators” (Takeda San Diego, Inc., priority 2008, dated 2013).

The structures appear in SMILES notation. Read-outs that look alike come from different tables or passages of the source.

Consider `O=C(Nc1cnccn1)C(CC1CCOCC1)n1cc(S(=O)(=O)C2CC2)cn1` (stereo not drawn) [Compound 46, 2-(4-(cyclopropylsulfonyl)-1H-pyrazol-1-yl)-N-(pyrazin-2-yl)-3-(tetrahydro-2H-pyran-4-yl)propanamide], for which, under setting [1], the EC50 was at least 15.8 µM. The Emax under setting [2] was 101 to 105%.

Regarding `O=C(Nc1cnccn1)[C@H](CC1CCOCC1)n1ncc2c(S(=O)(=O)C3CC3)cncc21` [Compound 171, (S)-2-(4-(cyclopropylsulfonyl)-1H-pyrazolo[3,4-c]pyridin-1-yl)-N-(pyrazin-2-yl)-3-(tetrahydro-2H-pyran-4-yl)propanamide], the EC50 under setting [1] was 1.58 to 3.16 µM. For the same compound, the Emax under setting [3] is 106 to 110%.

In the case of `Cn1ccc(NC(=O)[C@H](CC2CCOCC2)n2ncc3c(S(=O)(=O)C4CC4)cncc32)n1` [Compound 159, (S)-2-(4-(cyclopropylsulfonyl)-1H-pyrazolo[3,4-c]pyridin-1-yl)-N-(1-methyl-1H-pyrazol-3-yl)-3-(tetrahydro-2H-pyran-4-yl)propanamide], under setting [1], the EC50 is 1.58 to 3.16 µM. Moreover, the Emax under setting [2] is 101 to 105%.

For `O=C1CCC(CC(C(=O)Nc2ncc(F)s2)n2cc(S(=O)(=O)C3CC3)cn2)C1` (stereo not drawn) [Compound 50, 2-(4-(cyclopropylsulfonyl)-1H-pyrazol-1-yl)-N-(5-fluorothiazol-2-yl)-3-(3-oxocyclopentyl)propanamide], the EC50 under setting [1] is at least 15.8 µM. The Emax under setting [2] was at most 90%.

Regarding `O=C(Nc1ncc(F)s1)[C@H](CC1CCOCC1)n1cc(S(=O)(=O)C2CC2)cn1` [Compound 32, (S)-2-(4-(cyclopropylsulfonyl)-1H-pyrazol-1-yl)-N-(5-fluorothiazol-2-yl)-3-(tetrahydro-2H-pyran-4-yl)propanamide], the EC50 under setting [1] was in the range of 3.98 to 12.6 µM. Besides, the Emax under setting [2] was 101 to 105%.

Regarding `Cc1ccc(NC(=O)C(CC2CCOCC2)n2ncc3c(S(=O)(=O)C4CC4)cccc32)nn1` (stereo not drawn) [Compound 116, 2-(4-(cyclopropylsulfonyl)-1H-indazol-1-yl)-N-(6-methylpyridazin-3-yl)-3-(tetrahydro-2H-pyran-4-yl)propanamide], the EC50 under setting [1] fell in the range of 3.98 to 12.6 µM. Further, the Emax under setting [2] was at most 90%.

Regarding `O=C(Nc1ncc(F)s1)[C@H](CC1CCCC1)n1cc(S(=O)(=O)C2CC2)cn1` [Compound 36, (S)-3-cyclopentyl-2-(4-(cyclopropylsulfonyl)-1H-pyrazol-1-yl)-N-(5-fluorothiazol-2-yl)propanamide], the EC50 under setting [1] lay in the range of 1.58 to 3.16 µM. Also, under setting [2], the Emax is at least 111%.

In the case of `N#Cc1cnc(NC(=O)[C@@H](CC2CCOCC2)n2ncc3c(S(=O)(=O)C4CC4)cccc32)s1` [Compound 137, (R)-N-(5-cyanothiazol-2-yl)-2-(4-(cyclopropylsulfonyl)-1H-indazol-1-yl)-3-(tetrahydro-2H-pyran-4-yl)propanamide], the EC50 under setting [1] lay within 3.98 to 12.6 µM. The Emax under setting [2] is at most 90%.

As for `O=C(Nc1ncc(F)s1)[C@H](CC1CCOCC1)n1ncc2c(S(=O)(=O)C3CC3)cccc21` [Compound 69, (S)-2-(4-(cyclopropylsulfonyl)-1H-indazol-1-yl)-N-(5-fluorothiazol-2-yl)-3-(tetrahydro-2H-pyran-4-yl)propanamide], the EC50 under setting [1] is at most 0.316 µM. For the same compound, the Emax under setting [2] is 106 to 110%.

Regarding `O=C(Nc1ncc(F)s1)C(CC1CCOCC1)n1ncc2c(S(=O)(=O)C3CC3)cc(O)cc21` (stereo not drawn) [Compound 130, 2-(4-(cyclopropylsulfonyl)-6-hydroxy-1H-indazol-1-yl)-N-(5-fluorothiazol-2-yl)-3-(tetrahydro-2H-pyran-4-yl)propanamide], the EC50 under setting [1] is at most 0.316 µM. Besides, under setting [2], the Emax was 101 to 105%.

Take `Cn1ccc(NC(=O)C(CC2CCOCC2)n2ncc3c(S(=O)(=O)C4CC4)cc(Cl)cc32)n1` (stereo not drawn) [Compound 101, 2-(6-chloro-4-(cyclopropylsulfonyl)-1H-indazol-1-yl)-N-(1-methyl-1H-pyrazol-3-yl)-3-(tetrahydro-2H-pyran-4-yl)propanamide]: the EC50 under setting [1] fell in the range of 0.398 to 1.26 µM. Further, the Emax under setting [2] was 90 to 100%.

Consider `COc1ccc2nc(NC(=O)[C@H](CC3CCOCC3)n3ccc(S(=O)(=O)C4CC4)n3)sc2n1` [Compound 2, (S)-2-(3-(cyclopropylsulfonyl)-1H-pyrazol-1-yl)-N-(5-methoxythiazolo[5,4-b]pyridin-2-yl)-3-(tetrahydro-2H-pyran-4-yl)propanamide], for which the EC50 under setting [1] is at least 15.8 µM. For the same compound, the Emax under setting [2] was at most 90%.

For the compound `O=C(Nc1ncc(Cl)s1)C(CC1CCOCC1)n1cc2cc(S(=O)(=O)C3CC3)ccc2n1` (stereo not drawn) [Compound 51, N-(5-chlorothiazol-2-yl)-2-(5-(cyclopropylsulfonyl)-2H-indazol-2-yl)-3-(tetrahydro-2H-pyran-4-yl)propanamide], the EC50 under setting [1] was 0.398 to 1.26 µM. Under setting [2], the Emax was at least 111%.

For `COc1ccc2c(cnn2C(CC2CCOCC2)C(=O)Nc2cnccn2)c1S(=O)(=O)C1CC1` (stereo not drawn) [Compound 91, 2-(4-(cyclopropylsulfonyl)-5-methoxy-1H-indazol-1-yl)-N-(pyrazin-2-yl)-3-(tetrahydro-2H-pyran-4-yl)propanamide], the EC50 under setting [1] is 0.398 to 1.26 µM. Further, under setting [2], the Emax is 101 to 105%.

For the compound `COc1cc(S(=O)(=O)C2CC2)c2cnn([C@H](CC3CCOCC3)C(=O)Nc3ncc(F)s3)c2c1` [Compound 129, (R)-2-(4-(cyclopropylsulfonyl)-6-methoxy-1H-indazol-1-yl)-N-(5-fluorothiazol-2-yl)-3-(tetrahydro-2H-pyran-4-yl)propanamide], the EC50 under setting [1] lay within 3.98 to 12.6 µM. The Emax under setting [2] was at most 90%.

As for `Cn1ccc(NC(=O)C(CC2CCOCC2)n2cc3c(S(=O)(=O)C4CC4)c(F)ccc3n2)n1` (stereo not drawn) [Compound 153, 2-(4-(cyclopropylsulfonyl)-5-fluoro-2H-indazol-2-yl)-N-(1-methyl-1H-pyrazol-3-yl)-3-(tetrahydro-2H-pyran-4-yl)propanamide], under setting [1], the EC50 was at least 15.8 µM. For the same compound, the Emax under setting [2] is 106 to 110%.

In the case of `O=C(Nc1ncc(Cl)s1)[C@H](CC1CCOCC1)n1ncc2cc(S(=O)(=O)C3CC3)ccc21` [Compound 48, (S)-N-(5-chlorothiazol-2-yl)-2-(5-(cyclopropylsulfonyl)-1H-indazol-1-yl)-3-(tetrahydro-2H-pyran-4-yl)propanamide], under setting [1], the EC50 lay within 0.398 to 1.26 µM. Under setting [2], the Emax was at least 111%.

For the compound `O=C(Nc1cnccn1)C(CC1CCOCC1)n1cc2c(S(=O)(=O)C3CC3)cncc2n1` (stereo not drawn) [Compound 169, 2-(4-(cyclopropylsulfonyl)-2H-pyrazolo[3,4-c]pyridin-2-yl)-N-(pyrazin-2-yl)-3-(tetrahydro-2H-pyran-4-yl)propanamide], the EC50 under setting [1] was at least 15.8 µM. Besides, under setting [2], the Emax was at most 90%.

`Nc1cc(S(=O)(=O)C2CC2)c2cnn([C@H](CC3CCOCC3)C(=O)Nc3ncc(F)s3)c2n1` [Compound 111, (R)-2-(6-amino-4-(cyclopropylsulfonyl)-1H-pyrazol[3,4-b]pyridin-1-yl)-N-(5-fluorothiazol-2-yl)-3-(tetrahydro-2H-pyran-4-yl)propanamide]: the EC50 under setting [1] is 0.398 to 1.26 µM. Besides, the Emax under setting [3] is 106 to 110%.

Take `O=C(Nc1ncc(Cl)s1)C(CC1CCCC1)n1cc(S(=O)(=O)C2CC2)cn1` (stereo not drawn) [Compound 33, N-(5-chlorothiazol-2-yl)-3-cyclopentyl-2-(4-(cyclopropylsulfonyl)-1H-pyrazol-1-yl)propanamide]: the EC50 under setting [1] lay within 1.58 to 3.16 µM. Besides, the Emax under setting [2] is at least 111%.

For `N#Cc1cnc(NC(=O)C(CC2CCOCC2)n2ncc3c(S(=O)(=O)C4CC4)cccc32)nc1` (stereo not drawn) [Compound 126, N-(5-cyanopyrimidin-2-yl)-2-(4-(cyclopropylsulfonyl)-1H-indazol-1-yl)-3-(tetrahydro-2H-pyran-4-yl)propanamide], the EC50 under setting [1] is at least 15.8 µM. Also, under setting [2], the Emax was at most 90%.

`O=C(Nc1cnccn1)[C@@H](CC1CCOCC1)n1ncc2c(S(=O)(=O)C3CC3)ccnc21` [Compound 161, (R)-2-(4-(cyclopropylsulfonyl)-1H-pyrazolo[3,4-b]pyridin-1-yl)-N-(pyrazin-2-yl)-3-(tetrahydro-2H-pyran-4-yl)propanamide]: under setting [1], the EC50 is at least 15.8 µM. Further, under setting [2], the Emax is at most 90%.

With `O=C(Nc1ccc(Cl)cn1)C(CC1CCOCC1)n1cc(S(=O)(=O)C2CC2)cn1` (stereo not drawn) [Compound 45, N-(5-chloropyridin-2-yl)-2-(4-(cyclopropylsulfonyl)-1H-pyrazol-1-yl)-3-(tetrahydro-2H-pyran-4-yl)propanamide], the EC50 under setting [1] was in the range of 3.98 to 12.6 µM. Under setting [2], the Emax is at least 111%.

For the compound `O=C(Nc1ncc(F)s1)C(CC1CCOCC1)n1ncc2c(S(=O)(=O)C3CC3)ccc(Cl)c21` (stereo not drawn) [Compound 23, 2-(7-chloro-4-(cyclopropylsulfonyl)-1H-indazol-1-yl)-N-(5-flourothiazol-2-yl)-3-(tetrahydro-2H-pyran-4-yl)propanamide], the pKact result under setting [1] is “≧6.5”. Besides, the “% ACTmax” value (calculated maximal gain in GK enzyme activity at a saturating concentration of the compound) was “≧111%”.
